Laboratory results reported in patent US20120065228A1, “COMPOSITIONS AND METHODS FOR TREATING, CONTROLLING, REDUCING, OR AMELIORATING OCULAR INFLAMMATORY WITH LOWER RISK OF INCREASED INTRAOCULAR PRESSURE” (priority 2007, published 2012).

Test system: intraocular pressure (IOP) in New Zealand White rabbits
Assay: Intraocular pressure in New Zealand White rabbits, topical dosing four times daily
Format: in vivo
Method: On Days 1-31, animals received daily topical doses of the appropriate test article into the right eye. Animals were dosed four times per day, with doses administered 2 hours apart. Doses were administered using a calibrated 50-μL pipette. The eyelids were held close for 10 seconds immediately following dosing. The time of each dose administration was recorded.
Intraocular pressure (“IOP”) was determined for both eyes of each animal on Days 3, 5, 10, 12, 16, 18, 22, 24, 26, 30, and 32. LOP was evaluated with a Medtronic Solan, Model 30 classic pneumatonometer. Proparacaine hydrochloride 0.5% (1 drop) was delivered to each eye prior to IOP measurement. IOP was measured on Monday, Wednesday, and Friday of each week. A two-point diurnal curve was established: IOP was recorded at 8 a.m. and 12 p.m. on Day 3, and at 8 a.m. and 2 p.m. on later days, with a ±1 hour range for each of these times. The time of the measurements was recorded.
Descriptive statistics were prepared for IOP data of each treatment group (left and right eyes separately) at each measurement interval. The statistics included the number of observations (“N”), mean, standard deviation (“STD”), and standard error (“SEM”). Statistical analyses were conducted on IOP results using Statistical Analysis Systems (SAS Institute, Inc., Cary, N.C., V8.0). Parameters were evaluated using analysis of variance/GLM Procedure followed by Tukey's Standardized Range Test (Tukey, 1985) for post hoc comparisons of group means. The level of significance was set at a probability of p<0.05 for all statistical procedures. Group IOP means were compared at each interval, with left and right eyes compared separately.
IOP data for the following six animals were excluded from group statistics: Group A, Nos. 3081, 3037, 3068, and 3011; Group C, No. 3034; and Group E, No. 3084.

Which “Intraocular Pressure, MEAN” value (treated right eyes, A.M. readings, Day 12, 10 mg/g (Group B)) does the source give for `Cc1ccc2c(NCC(O)(CC(C)(C)c3cc(F)cc4c3OCC4)C(F)(F)F)cccc2n1` (centres unmarked) [BOL-303242-X] here?
Its value is 23.9 mmHg.

And the “Intraocular Pressure, MEAN” value (treated right eyes, A.M. readings, Day 16, 1 mg/g (Group D))?
Its value is 22.1 mmHg.

What about the “Intraocular Pressure, MEAN” value (treated right eyes, A.M. readings, Day 16, 5 mg/g (Group C)) of the same compound?
Its value is 24.3 mmHg.

What about the “Intraocular Pressure, MEAN” value (treated right eyes, A.M. readings, Day 16, 10 mg/g (Group B)) of the same compound?
Its value is 23.4 mmHg.

What about the “Intraocular Pressure, MEAN” value (treated right eyes, A.M. readings, Day 18, 1 mg/g (Group D)) of the same compound?
Its value is 23.7 mmHg.

What about the “Intraocular Pressure, MEAN” value (treated right eyes, A.M. readings, Day 18, 5 mg/g (Group C)) of the same compound?
Its value is 23.9 mmHg.

What about the “Intraocular Pressure, MEAN” value (treated right eyes, A.M. readings, Day 18, 10 mg/g (Group B)) of the same compound?
Its value is 22.3 mmHg.

And the “Intraocular Pressure, MEAN” value (treated right eyes, A.M. readings, Day 22, 1 mg/g (Group D))?
The value was 23.2 mmHg.

What about the “Intraocular Pressure, MEAN” value (treated right eyes, A.M. readings, Day 22, 5 mg/g (Group C)) of the same compound?
Its value is 22.4 mmHg.

And the “Intraocular Pressure, MEAN” value (treated right eyes, A.M. readings, Day 22, 10 mg/g (Group B))?
The value was 22.4 mmHg.

What about the “Intraocular Pressure, MEAN” value (treated right eyes, A.M. readings, Day 24, 1 mg/g (Group D)) of the same compound?
The value was 22.1 mmHg.

What about the “Intraocular Pressure, MEAN” value (treated right eyes, A.M. readings, Day 24, 5 mg/g (Group C)) of the same compound?
Its value is 23.8 mmHg.

What about the “Intraocular Pressure, MEAN” value (treated right eyes, A.M. readings, Day 24, 10 mg/g (Group B)) of the same compound?
Its value is 21.2 mmHg.

What about the “Intraocular Pressure, MEAN” value (treated right eyes, A.M. readings, Day 26, 1 mg/g (Group D)) of the same compound?
Its value is 23.1 mmHg.

And the “Intraocular Pressure, MEAN” value (treated right eyes, A.M. readings, Day 26, 5 mg/g (Group C))?
Its value is 22.1 mmHg.

What about the “Intraocular Pressure, MEAN” value (treated right eyes, A.M. readings, Day 26, 10 mg/g (Group B)) of the same compound?
The value was 21.8 mmHg.

And the “Intraocular Pressure, MEAN” value (treated right eyes, A.M. readings, Day 30, 1 mg/g (Group D))?
The value was 24.2 mmHg.

And the “Intraocular Pressure, MEAN” value (treated right eyes, A.M. readings, Day 30, 5 mg/g (Group C))?
Its value is 22.9 mmHg.

What about the “Intraocular Pressure, MEAN” value (treated right eyes, A.M. readings, Day 30, 10 mg/g (Group B)) of the same compound?
Its value is 22.7 mmHg.

And the “Intraocular Pressure, MEAN” value (treated right eyes, A.M. readings, Day 32, 1 mg/g (Group D))?
Its value is 24.9 mmHg.

And the “Intraocular Pressure, MEAN” value (treated right eyes, A.M. readings, Day 32, 5 mg/g (Group C))?
Its value is 23.4 mmHg.

And the “Intraocular Pressure, MEAN” value (treated right eyes, A.M. readings, Day 32, 10 mg/g (Group B))?
The value was 23.9 mmHg.

What about the “Intraocular Pressure, MEAN” value (treated right eyes, A.M. readings, Pre-Study, 1 mg/g (Group D)) of the same compound?
The value was 24.4 mmHg.

What about the “Intraocular Pressure, MEAN” value (treated right eyes, A.M. readings, Pre-Study, 5 mg/g (Group C)) of the same compound?
The value was 24.8 mmHg.

What about the “Intraocular Pressure, MEAN” value (treated right eyes, A.M. readings, Pre-Study, 10 mg/g (Group B)) of the same compound?
The value was 24.0 mmHg.

And the “Intraocular Pressure, MEAN” value (untreated left eyes, P.M. readings, Day 3, 1 mg/g (Group D))?
The value was 25.0 mmHg.

And the “Intraocular Pressure, MEAN” value (untreated left eyes, P.M. readings, Day 3, 5 mg/g (Group C))?
The value was 23.9 mmHg.

What about the “Intraocular Pressure, MEAN” value (untreated left eyes, P.M. readings, Day 3, 10 mg/g (Group B)) of the same compound?
Its value is 23.3 mmHg.

And the “Intraocular Pressure, MEAN” value (untreated left eyes, P.M. readings, Day 5, 1 mg/g (Group D))?
The value was 24.7 mmHg.

What about the “Intraocular Pressure, MEAN” value (untreated left eyes, P.M. readings, Day 5, 5 mg/g (Group C)) of the same compound?
The value was 24.8 mmHg.

And the “Intraocular Pressure, MEAN” value (untreated left eyes, P.M. readings, Day 5, 10 mg/g (Group B))?
Its value is 25.2 mmHg.

And the “Intraocular Pressure, MEAN” value (untreated left eyes, P.M. readings, Day 10, 1 mg/g (Group D))?
The value was 24.9 mmHg.

What about the “Intraocular Pressure, MEAN” value (untreated left eyes, P.M. readings, Day 10, 5 mg/g (Group C)) of the same compound?
Its value is 24.6 mmHg.

And the “Intraocular Pressure, MEAN” value (untreated left eyes, P.M. readings, Day 10, 10 mg/g (Group B))?
Its value is 23.5 mmHg.

And the “Intraocular Pressure, MEAN” value (untreated left eyes, P.M. readings, Day 12, 1 mg/g (Group D))?
The value was 23.7 mmHg.

What about the “Intraocular Pressure, MEAN” value (untreated left eyes, P.M. readings, Day 12, 5 mg/g (Group C)) of the same compound?
Its value is 23.3 mmHg.

What about the “Intraocular Pressure, MEAN” value (untreated left eyes, P.M. readings, Day 12, 10 mg/g (Group B)) of the same compound?
Its value is 24.1 mmHg.

What about the “Intraocular Pressure, MEAN” value (untreated left eyes, P.M. readings, Day 16, 1 mg/g (Group D)) of the same compound?
Its value is 21.9 mmHg.

What about the “Intraocular Pressure, MEAN” value (untreated left eyes, P.M. readings, Day 16, 5 mg/g (Group C)) of the same compound?
Its value is 20.4 mmHg.

What about the “Intraocular Pressure, MEAN” value (untreated left eyes, P.M. readings, Day 16, 10 mg/g (Group B)) of the same compound?
The value was 21.4 mmHg.

What about the “Intraocular Pressure, MEAN” value (untreated left eyes, P.M. readings, Day 18, 1 mg/g (Group D)) of the same compound?
Its value is 22.7 mmHg.

And the “Intraocular Pressure, MEAN” value (untreated left eyes, P.M. readings, Day 18, 5 mg/g (Group C))?
The value was 21.9 mmHg.

What about the “Intraocular Pressure, MEAN” value (untreated left eyes, P.M. readings, Day 18, 10 mg/g (Group B)) of the same compound?
Its value is 22.1 mmHg.

And the “Intraocular Pressure, MEAN” value (untreated left eyes, P.M. readings, Day 22, 1 mg/g (Group D))?
The value was 22.1 mmHg.

What about the “Intraocular Pressure, MEAN” value (untreated left eyes, P.M. readings, Day 22, 5 mg/g (Group C)) of the same compound?
The value was 22.1 mmHg.

What about the “Intraocular Pressure, MEAN” value (untreated left eyes, P.M. readings, Day 22, 10 mg/g (Group B)) of the same compound?
Its value is 22.6 mmHg.

What about the “Intraocular Pressure, MEAN” value (untreated left eyes, P.M. readings, Day 24, 1 mg/g (Group D)) of the same compound?
Its value is 22.9 mmHg.

And the “Intraocular Pressure, MEAN” value (untreated left eyes, P.M. readings, Day 24, 5 mg/g (Group C))?
Its value is 22.2 mmHg.

And the “Intraocular Pressure, MEAN” value (untreated left eyes, P.M. readings, Day 24, 10 mg/g (Group B))?
Its value is 22.8 mmHg.

And the “Intraocular Pressure, MEAN” value (untreated left eyes, P.M. readings, Day 26, 1 mg/g (Group D))?
Its value is 22.1 mmHg.

And the “Intraocular Pressure, MEAN” value (untreated left eyes, P.M. readings, Day 26, 5 mg/g (Group C))?
The value was 22.3 mmHg.

And the “Intraocular Pressure, MEAN” value (untreated left eyes, P.M. readings, Day 26, 10 mg/g (Group B))?
Its value is 21.4 mmHg.

And the “Intraocular Pressure, MEAN” value (untreated left eyes, P.M. readings, Day 30, 10 mg/g (Group B))?
The value was 21.7 mmHg.
